Columns and labels:
human LDL = test: Copper-catalyzed oxidation of human LDL in vitro, increase in absorbance at 234 nm (diene-products); assay type: biochemical; conditions: 5 μM CuCl2, 30° C., PBS; for inhibition of LDL oxidation, concentration dependence: absorbance at 234 nm over 225 minutes; for inhibition of LDL oxidation at 5 μM: 5 μM compound; for inhibition of LDL oxidation at 5 μM / inhibition of LDL oxidation at 10 μM: 234 nm; for inhibition of LDL oxidation at 10 μM: 10 μM compound
Protocol: Copper-catalyzed LDL-oxidation was monitored by following the increase in absorbance at wavelength 234 nm over time (representing increase in diene-products).
Human LDL (1.025<d<1.050 g/ml) was freshly isolated (from sera of normolipidemic donors who had fasted overnight) by sequential ultracentrifugation, in the presence of EDTA (1.4 mg/ml) to inihibit lipid peroxidation. LDL was finally dialyzed under nitrogen against 10 mM phosphate buffer with 160 mM NaCl, pH 7.4 (PBS), for 24 h at 4° C.
Assays were performed at 30° C. in PBS by mixing 200 μl of the LDL-containing dialysate to PBS to a final volume of 2000 μl. The LDL-oxidation was started by adding 5 μM CuCl2 and the changes in absorbance at wavelength 234 nm was followed over 225 minutes.

[1] = Plasma metallo-PLED by HPLC after oral (intragastric) administration to rats; assay type: in vivo; conditions: rat, 100 μmol/kg MnPLED into the stomach, 5 minutes after administration
Protocol: In order to get a rough estimate of the bioavailability of MnPLED after oral administration, rats were instilled with MnPLED into the stomach and the plasma concentrations of metallo-PLED was determined at various times after administration.
100 μmol/kg MnPLED was instilled into the stomach. Blood (ca 4.5 ml) was withdrawn by cardiac puncture (under CO2 -anaesthesia) and collected in tubes containing heparin (trace metal analysis tubes), 5, 30, 60, 120 minutes and 24 hours after oral administration (2 rats for each time point). Plasma was prepared by centrifugation and ultrafiltration and metallo-PLED was determined by HPLC as described by Toft et al. 1997 (Acta Radiologica 38: 677-689).

Row | Substance | inhibition of LDL oxidation, concentration dependence (human LDL) | inhibition of LDL oxidation at 5 μM (human LDL) | inhibition of LDL oxidation at 10 μM (human LDL) | presence of MnPLED in plasma ([1]; one animal) | transmetallation of MnPLED into ZnPLED ([1]; plasma)
1 | MnDPDP | inhibited LDL oxidation in a concentration-dependent manner | more than 50% | almost complete inhibition | – | –
2 | dihydrogen [N,N'-ethylenebis [N-[[3-hydroxy-5-(hydroxymethyl)-2-methyl-4-pyridyl]methyl] glycinato] (4-)] manganate(2-) [MnPLED] | inhibited LDL oxidation in a concentration-dependent manner | more than 50% | almost complete inhibition | may indicate the presence of small amounts of MnPLED in plasma | most of the MnPLED has already been transmetallated into ZnPLED
